Data published in ChEMBL document CHEMBL3739333, “Nature of the charged head group dictates the anticancer potential of lithocholic acid-tamoxifen conjugates for breast cancer therapy” (Medchemcomm, 2015).
Calls of active or inactive are those of the source. The rule behind the calls is not given here.

How the values were obtained:
MDA-MB-231 [1] = test: Cytotoxicity against human ER negative MDA-MB-231 cells after 48 hrs by MTT assay; format: functional, cell-based; conditions: MDA-MB-231, 48 h
T47D [2] = test: Cytotoxicity against human T47D cells expressing ER after 48 hrs by MTT assay; format: functional, cell-based
[3] = Retention time of the compound by HPLC analysis; format: physicochemical
MDA-MB-468 [4] = test: Cytotoxicity against human ER negative MDA-MB-468 cells after 48 hrs by MTT assay; format: functional, cell-based; conditions: MDA-MB-468, 48 h
MCF7 [5] = test: Cytotoxicity against human MCF7 cells expressing ER after 48 hrs by MTT assay; format: functional, cell-based; conditions: MCF7, 48 h
MCF7 [6] = test: Cell cycle arrest in human MCF7 cells expressing ER assessed as accumulation of sub-G0 phase after 48 hrs by FACS analysis; format: functional, cell-based
Lipid bilayer [7] = test: Binding affinity to DPPC membranes assessed as lowering of phase transition temperature
Lipid bilayer [8] = test: Binding affinity to DPPC membranes assessed as changes in membrane fluidity of liposomes by measuring fluorescence anisotropy; conditions: Liposome; TDE = time-dependent effect
[9] = Binding affinity to model membranes using Laurdan-based hydration assessed as changes in generalized polarization after 6 hrs
MCF7 [10] = test: Induction of apoptosis in human MCF7 cells expressing ER assessed as change in mitochondrial membrane potential at 10 to 20 uM after 48 hrs using DiOC6 dye based FACS analysis; format: functional, cell-based
MDA-MB-231 [11] = test: Cell cycle arrest in human ER negative MDA-MB-231 cells assessed as accumulation of sub-G0 phase after 48 hrs by FACS analysis; format: functional, cell-based
MDA-MB-231 [12] = test: Induction of apoptosis in human ER negative MDA-MB-231 cells assessed as decrease of Bcl-2 protein expression at 10 uM after 48 hrs by Western blot analysis; format: functional, cell-based
MCF7 [13] = test: Decrease in active-caspase-8 level in human MCF7 cells expressing ER at 10 uM after 48 hrs by Western blot analysis; format: functional, cell-based
MCF7 [14] = test: Decrease in caspase-7 level in human MCF7 cells expressing ER at 10 uM after 48 hrs by Western blot analysis; format: functional, cell-based
MDA-MB-231 [15] = test: Induction of apoptosis in human ER negative MDA-MB-231 cells assessed as effect on caspase 9 level at 10 uM after 48 hrs by Western blot analysis; format: functional, cell-based
MDA-MB-231 [16] = test: Induction of apoptosis in human ER negative MDA-MB-231 cells assessed as increase of cleaved caspase 8 level at 10 uM after 48 hrs by Western blot analysis; format: functional, cell-based
MDA-MB-231 [17] = test: Induction of apoptosis in human ER negative MDA-MB-231 cells assessed as increase of cleaved caspase 7 level at 10 uM after 48 hrs by Western blot analysis; format: functional, cell-based
MCF7 [18] = test: Induction of apoptosis in human MCF7 cells expressing ER assessed as effect on caspase 9 level at 10 uM after 48 hrs by Western blot analysis; format: functional, cell-based
MCF7 [19] = test: Cell cycle arrest in human MCF7 cells expressing ER assessed as accumulation of sub-G0 phase at 20 uM after 48 hrs by FACS analysis relative to control; format: functional
MCF7 [20] = test: Induction of apoptosis in human MCF7 cells expressing ER assessed as effect of Bax protein expression at 10 uM after 48 hrs by Western blot analysis; format: functional, cell-based
MDA-MB-231 [21] = test: Ratio of tamoxifen IC50 to compound IC50 for human ER negative MDA-MB-231 cells after 48 hrs by MTT assay; format: functional
MCF7 [22] = test: Decrease in pro-caspase-8 level in human MCF7 cells expressing ER at 10 uM after 48 hrs by Western blot analysis; format: functional, cell-based
MCF7 [23] = test: Induction of apoptosis in human MCF7 cells expressing ER assessed as increase of ROS level at 20 uM after 60 mins using DCFDA relative to control; format: functional, cell-based
MDA-MB-231 [24] = test: Induction of apoptosis in human ER negative MDA-MB-231 cells assessed as change in mitochondrial membrane potential at 10 to 20 uM after 48 hrs using DiOC6 dye based FACS analysis; format: functional, cell-based
MCF7 [25] = test: Induction of apoptosis in human MCF7 cells expressing ER assessed as decrease of Bcl-2 protein expression at 10 uM after 48 hrs by Western blot analysis; format: functional, cell-based
MDA-MB-231 [26] = test: Induction of apoptosis in human ER negative MDA-MB-231 cells assessed as increase of Bax protein expression at 10 uM after 48 hrs by Western blot analysis; format: functional, cell-based
MDA-MB-231 [27] = test: Induction of apoptosis in human ER negative MDA-MB-231 cells assessed as increase of ROS level at 20 uM after 60 mins using DCFDA relative to control; format: functional
MCF7 [28] = test: Induction of apoptosis in human MCF7 cells expressing ER assessed as decrease of Bcl-xL protein expression at 10 uM after 48 hrs by Western blot analysis; format: functional, cell-based
T47D [29] = test: Ratio of tamoxifen IC50 to compound IC50 for human ER positive T47D cells after 48 hrs by MTT assay; format: functional
MDA-MB-231 [30] = test: Induction of apoptosis in human ER negative MDA-MB-231 cells assessed as effect of Bcl-xL protein expression at 10 uM after 48 hrs by Western blot analysis; format: functional, cell-based
MDA-MB-468 [31] = test: Ratio of tamoxifen IC50 to compound IC50 for human ER negative MDA-MB-468 cells after 48 hrs by MTT assay; format: functional
MDA-MB-231 [32] = test: Induction of apoptosis in human ER negative MDA-MB-231 cells assessed as increase of cleaved caspase 6 level at 10 uM after 48 hrs by Western blot analysis; format: functional, cell-based
MCF7 [33] = test: Decrease in caspase-6 level in human MCF7 cells expressing ER at 10 uM after 48 hrs by Western blot analysis; format: functional, cell-based
MDA-MB-231 [34] = test: Cell cycle arrest in human ER negative MDA-MB-231 cells assessed as accumulation of sub-G0 phase at 20 uM after 48 hrs by FACS analysis relative to control; format: functional
MCF7 [35] = test: Drug uptake in human MCF7 cells expressing ER; format: ADME, cell-based
MDA-MB-231 [36] = test: Drug uptake in human ER negative MDA-MB-231 cells; format: ADME, cell-based

Compound: CC/C(=C(\c1ccccc1)c1ccc(OCCN(C)C(=O)CC[C@@H](C)[C@H]2CC[C@H]3[C@@H]4CC[C@@H]5C[C@H](OC(=O)C[N+]6(C)CCCC6)CC[C@]5(C)[C@H]4CC[C@]23C)cc1)c1ccccc1.[Cl-]
- IC50 (MDA-MB-231 [1]): 12.6 µM
- IC50 (T47D [2]): 8.4 µM
- Retention_time [3]: 6.79 min
- IC50 (MDA-MB-468 [4]): 6.61 µM
- IC50 (MCF7 [5]): 24 µM

Compound: CC/C(=C(\c1ccccc1)c1ccc(OCCN(C)C(=O)CC[C@@H](C)[C@H]2CC[C@H]3[C@@H]4CC[C@@H]5C[C@H](OC(=O)C[n+]6ccccc6)CC[C@]5(C)[C@H]4CC[C@]23C)cc1)c1ccccc1.[Cl-]
- IC50 (MDA-MB-231 [1]): 18 µM
- IC50 (T47D [2]): 17.4 µM
- Retention_time [3]: 7.033 min
- IC50 (MDA-MB-468 [4]): 13.6 µM
- IC50 (MCF7 [5]): > 50 µM

Compound: C[C@H](CCC(=O)O)[C@H]1CC[C@H]2[C@@H]3CC[C@@H]4C[C@H](OC(=O)C[n+]5ccc(N(C)C)cc5)CC[C@]4(C)[C@H]3CC[C@]12C
- Activity (MCF7 [6]): Dose-dependent effect
- Activity (Lipid bilayer [7]): Active
- IC50 (MDA-MB-231 [1]): 13.7 µM
- Activity (Lipid bilayer [8]): tde
- Activity [9]: inactive
- Activity (MCF7 [10]): inactive
- IC50 (T47D [2]): 13.3 µM
- Activity (MDA-MB-231 [11]): Dose-dependent effect
- IC50 (MDA-MB-468 [4]): 9.1 µM
- IC50 (MCF7 [5]): 43.4 µM

Compound: CC/C(=C(\c1ccccc1)c1ccc(OCCN(C)C(=O)CC[C@@H](C)[C@H]2CC[C@H]3[C@@H]4CC[C@@H]5C[C@H](OC(=O)C[N+]6(C)CCCCC6)CC[C@]5(C)[C@H]4CC[C@]23C)cc1)c1ccccc1.[Cl-]
- IC50 (MDA-MB-231 [1]): 9.2 µM
- IC50 (T47D [2]): 9.8 µM
- Retention_time [3]: 6.767 min
- IC50 (MDA-MB-468 [4]): 7.6 µM
- IC50 (MCF7 [5]): 24.5 µM

Compound: CC/C(=C(\c1ccccc1)c1ccc(OCCN(C)C(=O)CC[C@@H](C)[C@H]2CC[C@H]3[C@@H]4CC[C@@H]5C[C@H](OC(=O)C[n+]6ccc(N(C)C)cc6)CC[C@]5(C)[C@H]4CC[C@]23C)cc1)c1ccccc1.[Cl-]
- Activity (MCF7 [6]): Dose-dependent effect
- Activity (MDA-MB-231 [12]): Active
- inhibition (MCF7 [13]): Active
- inhibition (MCF7 [14]): Active
- Activity (Lipid bilayer [7]): Active
- IC50 (MDA-MB-231 [1]): 6.5 µM
- Activity (Lipid bilayer [8]): tde
- Activity (MDA-MB-231 [15]): inactive
- Activity (MDA-MB-231 [16]): Active
- Activity (MDA-MB-231 [17]): Active
- Activity [9]: Active
- Activity (MCF7 [18]): inactive
- fold change (FC) (MCF7 [19]): 6
- Activity (MCF7 [10]): inactive
- Activity (MCF7 [20]): inactive
- Ratio IC50 (MDA-MB-231 [21]): 4
- inhibition (MCF7 [22]): Active
- Activity (MCF7 [23]): inactive
- Activity (MDA-MB-231 [24]): Active
- Activity (MCF7 [25]): Active
- Activity (MDA-MB-231 [26]): Active
- IC50 (T47D [2]): 7 µM
- fold change (FC) (MDA-MB-231 [27]): 2.3
- Activity (MCF7 [28]): Active
- Ratio IC50 (T47D [29]): 4
- Activity (MDA-MB-231 [30]): inactive
- Ratio IC50 (MDA-MB-468 [31]): 4
- Activity (MDA-MB-231 [32]): Active
- Retention_time [3]: 6.837 min
- inhibition (MCF7 [33]): Active
- Activity (MDA-MB-231 [11]): Dose-dependent effect
- IC50 (MDA-MB-468 [4]): 3.13 µM
- IC50 (MCF7 [5]): 12.7 µM
- fold change (FC) (MDA-MB-231 [34]): 5

Compound: CC/C(=C(\c1ccccc1)c1ccc(OCCN(C)C)cc1)c1ccccc1 [TAMOXIFEN]
- Activity (MCF7 [6]): Dose-dependent effect
- Activity (Lipid bilayer [7]): inactive
- IC50 (MDA-MB-231 [1]): 27 µM
- Activity (Lipid bilayer [8]): tde
- Activity [9]: inactive
- fold change (FC) (MCF7 [19]): 2
- Activity (MCF7 [10]): inactive
- Activity (MDA-MB-231 [24]): inactive
- IC50 (T47D [2]): 29.9 µM
- fold change (FC) (MDA-MB-231 [27]): 1.8
- Activity (MDA-MB-231 [11]): Dose-dependent effect
- IC50 (MDA-MB-468 [4]): 15 µM
- fold change (FC) (MDA-MB-231 [34]): 3

Compound: CC/C(=C(\c1ccccc1)c1ccc(OCCN(C)C(=O)CC[C@@H](C)[C@H]2CC[C@H]3[C@@H]4CC[C@@H]5C[C@H](OC(=O)C[N+]67CCN(CC6)CC7)CC[C@]5(C)[C@H]4CC[C@]23C)cc1)c1ccccc1.[Cl-]
- IC50 (MDA-MB-231 [1]): 20 µM
- IC50 (T47D [2]): 17.9 µM
- Retention_time [3]: 6.735 min
- IC50 (MDA-MB-468 [4]): 20.9 µM
- IC50 (MCF7 [5]): > 50 µM

Compound: CC/C(=C(\c1ccccc1)c1ccc(OCCN(C)C(=O)CC[C@@H](C)[C@H]2CC[C@H]3[C@@H]4CC[C@@H]5C[C@H](OC(=O)CN)CC[C@]5(C)[C@H]4CC[C@]23C)cc1)c1ccccc1
- IC50 (MDA-MB-231 [1]): > 50 µM
- Activity (Lipid bilayer [8]): tde
- Activity [9]: Active
- IC50 (T47D [2]): > 50 µM
- IC50 (MDA-MB-468 [4]): > 50 µM
- IC50 (MCF7 [5]): > 50 µM

Compound: C[C@H](CCC(=O)NCc1cn(CCNc2ccc([N+](=O)[O-])c3nonc23)nn1)[C@H]1CC[C@H]2[C@@H]3CC[C@@H]4C[C@H](OC(=O)C[n+]5ccc(N(C)C)cc5)CC[C@]4(C)[C@H]3CC[C@]12C.[Cl-]
- Drug uptake (MCF7 [35]): Active
- Drug uptake (MDA-MB-231 [36]): Active

Compound: CC/C(=C(\c1ccccc1)c1ccc(OCCN(C)c2ccc([N+](=O)[O-])c3nonc23)cc1)c1ccccc1
- Drug uptake (MCF7 [35]): Active
- Drug uptake (MDA-MB-231 [36]): Active

Compound: CC/C(=C(\c1ccccc1)c1ccc(OCCN(C)C(=O)CC[C@@H](C)[C@H]2CC[C@H]3[C@@H]4CC[C@@H]5C[C@H](OC(=O)C[N+](C)(C)C)CC[C@]5(C)[C@H]4CC[C@]23C)cc1)c1ccccc1.[Cl-]
- IC50 (MDA-MB-231 [1]): 18.1 µM
- IC50 (T47D [2]): 8.1 µM
- Retention_time [3]: 6.676 min
- IC50 (MDA-MB-468 [4]): 15 µM
- IC50 (MCF7 [5]): 28.9 µM

Compound: CC/C(=C(\c1ccccc1)c1ccc(OCCN(C)C(=O)CC[C@@H](C)[C@H]2CC[C@H]3[C@@H]4CC[C@@H]5C[C@H](OC(=O)C[N+]6(C)CCOCC6)CC[C@]5(C)[C@H]4CC[C@]23C)cc1)c1ccccc1.[Cl-]
- IC50 (MDA-MB-231 [1]): 48.2 µM
- IC50 (T47D [2]): 45.2 µM
- Retention_time [3]: 6.741 min
- IC50 (MDA-MB-468 [4]): 15.3 µM
- IC50 (MCF7 [5]): 43.6 µM
